Data as given in patent publication US20230372288A1, “Application of Aristolochic Acid IVa in Preparation of Antihistamine or Drug for Treating Pneumonia” (priority 2022, published 2023).

Tests used:
[1] = tested on: histamine-induced increase in mouse vascular permeability; test: Histamine-induced increase in auricular vascular permeability, EB exudation test; type: in vivo, ICR mice; settings: for Ear blue staining compared with histamine model group: observed within 30 min after histamine; for Amount of EB exudation: histamine 5 mg/kg tail vein on 4th day, both ears, n = 10, mean ± SD; for EB exudation reduction rate: histamine 5 mg/kg, vs histamine group
Description: ICR mice are divided into 6 groups, including a negative control group (control): physiological saline is administered by gavage for 3 days, and on the 4th day, the physiological saline is administered by tail vein injection; a histamine model group (histamine): the physiological saline is administered by the gavage for 3 days, and 5 mg/kg of the histamine is administered by the tail vein injection on the 4th day; an AA-IVa low-dose treatment group (histamine+AA-IVa/L): 5 mg/kg of AA-IVa is administered by the gavage for 3 days, and 5 mg/kg of the histamine is administered by the tail vein injection on the 4th day; and an AA-IVa high-dose treatment group (histamine+AA-IVa/H): 10 mg/kg of AA-IVa is administered by the gavage for 3 days, and 5 mg/kg of the histamine is administered by the tail vein injection on the 4th day.
AA-Iva: 0.5 wt % CMC-Na is used for preparation, and the concentration is 0.5 mg/ml and 0.25 mg/ml respectively. Histamine: 0.5 mg/ml of histamine solution is prepared with the physiological saline.
4.3 Modeling Method • (1) Principle: the histamine may cause an increase in permeability of capillary and venule walls, and plasma leaks into tissues, leading to local tissue edema. EB is a commonly used indicator for detecting the vascular permeability. After intravenous injection of mixed solution of histamine and EB into the mice, the increase in the vascular permeability caused by the histamine may be observed in a mouse auricle (the auricle is stained blue). • (2) Method for establishing model of increased auricular vascular permeability induced by histamine: after the histamine (0.5 mg/ml) is mixed with 0.8% EB solution at a ratio of 1:1 (volume), the tail vein injection is performed at 20 ml/kg of a volume according to the weight of each mouse. The auricular blue staining condition of the mouse is observed within 30 min after the histamine is administered, and a picture of the auricular blue staining is taken. • (3) Auricular vascular permeability test (EB exudation test): after the above auricular blue staining is observed and photographed, both ears are cut, and cut into pieces. After being soaked in 2 ml of formamide at a room temperature for 48 h, it is filtered with a 200-mesh stainless steel sieve. A filtrate is taken, and the absorbance (A) is measured at 610 nm. According to an EB standard curve, the amount (μg) of EB dye exudation is calculated.
EB exudation reduction rate (%)=(average value of EB exudation in histamine group−average value of EB exudation in administration group)/average value of EB exudation in histamine group×100%.
Statistical analysis is performed by using SPSS 20.0 software. The variance analysis is performed on the amount of EB exudation from the auricle tissue by using an ANOVA program. Data is expressed as mean±standard deviation (x±S), the histamine model group is compared with the control group, and each administration group is compared with the histamine model group, P<0.05 is considered as a significant difference.
ICR mice are divided into 4 groups, including a negative control group (control) (1): physiological saline is administered by gavage for 3 days, and on the 4th day, the physiological saline is administered by tail vein injection; a histamine model group (histamine) (2): the physiological saline is administered by the gavage for 3 days, and on the 4th day, 5 mg/kg of the histamine is administered by the tail vein injection; an AA-I treatment group (histamine+AA-I) (3): 10 mg/kg of AA-I is administered by the gavage for 3 days, and on the 4th day, 5 mg/kg of the histamine is administered by the tail vein injection; and an AA-II treatment group (histamine+AA-II) (4): 10 mg/kg of AA-II is administered by the gavage for 3 days, and on the 4th day, 5 mg/kg of the histamine is administered by the tail vein injection.
Preparation of AA-I and AA-II: 0.5 wt % CMC-Na is used to prepare AA-I and AA-II into 0.5 mg/ml respectively.

[2] = tested on: histamine-induced pneumonia (lung tissue inflammatory exudation); test: Histamine-induced pneumonia, pathological examination of lung tissue; type: in vivo, ICR mice; settings: histamine 5 mg/kg, HE pathology
Description: 1. Experimental Method • (1) Model establishment, animal grouping and administration are the same as Embodiment 1. • (2) Pathological examination of lung tissue: after the mouse is euthanized due to vertebral detachment, it is dissected, and the lung tissue is taken out. The lung tissue is fixed with 10% neutral formalin for standby. After being fully fixed with formaldehyde, the submitted tissue is dehydrated step by step with ethanol, transparent with xylene, embedded with paraffin, and prepared conventionally into 3 μm of a paraffin section. HE, Masson, and PAS staining are used respectively, and the tissue inflammation exudation conditions are examined under an optical microscope (DP71 type, OLYMPUS, magnified by 400 times).
1. Experimental Method • (1) Model establishment, animal grouping and administration are the same as Contrast example 1. • (2) Pathological examination of lung tissue: same as Embodiment 2.

[3] = tested on: ICR mice; test: Toxicity test, single gavage, death within 14 days and renal pathology; type: in vivo; settings: 40 mg/kg once by gavage; for Death rate / Number of dead animals: 10 animals, within 14 days; for Renal pathological examination: survived animals after 14 days
Description: SPF-grade ICR mice are used, 18-22 g, with half male and half female. The animals are sourced from Beijing Vital River Laboratory Animal Technology Co., Ltd. After 1 day of adaptive feeding, the test substance is administered.
The mice are randomly divided into 4 groups: a control group (physiological saline is administered once by gavage) (1); an AA-I group (40 mg/kg of AA-I is administered once by the gavage) (2); an AA-II group (40 mg/kg of AA-II is administered once by the gavage) (3); and an AA-Iva group (40 mg/kg of AA-IVa is administered once by the gavage) (4).
Before the animals are administered by the gavage, it is fasted for 12 h without water deprivation. After being administered by the gavage, the animal death conditions within 14 days are recorded after the gavage administration. Survived animals are dissected, and kidneys are taken for the pathological examination.

[4] = drug 10 mg/kg by gavage for 3 days
[5] = drug 5 mg/kg by gavage for 3 days

SMILES	Amount of EB exudation compared to histamine model group (in words) ([1]; 10 mg/kg by gavage for 3 days)	Ear blue staining compared with histamine model group ([1]; 10 mg/kg by gavage for 3 days)	Amount of EB exudation [1, 4]	EB exudation reduction rate [1, 4]	Thickening of alveolar septa and exudation of inflammatory cells in lung tissue compared to model group ([2]; 10 mg/kg by gavage for 3 days)	Death rate [3]	Number of dead animals [3]	Renal pathological examination [3]	Amount of EB exudation compared to histamine model group (in words) ([1]; different doses (5 and 10 mg/kg by gavage for 3 days), P<0.001)	Ear blue staining compared with histamine model group ([1]; different doses (5 and 10 mg/kg by gavage for 3 days))	Amount of EB exudation [1, 5]	EB exudation reduction rate [1, 5]	Thickening of alveolar septa and exudation of inflammatory cells in lung tissue compared to model group ([2]; 5 mg/kg by gavage for 3 days)
COc1cccc2c1cc([N+](=O)[O-])c1c(C(=O)O)cc3c(c12)OCO3 [AA-I, Aristolochic Acid I]	no significant difference	no significant difference	1.01 ± 0.28 µg	14.4%	no significant difference compared to the histamine model group	70%	7	diffuse tubular necrosis	–	–	–	–	–
O=C(O)c1cc2c(c3c1c([N+](=O)[O-])cc1ccccc13)OCO2 [AA-II, Aristolochic Acid II]	no significant difference	no significant difference	1.09 ± 0.34 µg	7.6%	no significant difference compared to the histamine model group	10%	1	patchy tubular necrosis and tubular swelling	–	–	–	–	–
COc1cc(O)cc2c1cc([N+](=O)[O-])c1c(C(=O)O)cc3c(c12)OCO3 [AA-IVa, aristolochic acid IVa]	–	–	0.82 ± 0.25 µg	44.2%	significant reduction compared to the model group	–	–	no toxic damage	significantly decreased	significantly reduced	0.93 ± 0.20 µg	36.7%	significant reduction compared to the model group
